Source: patent US8545851B2, “Composition for improving inflammatory disease using ABH antigens” (SNU R&DB Foundation, priority 2009, dated 2013)

Each compound was assayed on B antigen expression in HaCaT cells harboring B antigen (assay: Effect of ABH antigen-constituting monosaccharides and mixtures on B antigen expression, Western blotting). Settings: HaCaT cells, 0.1, 1 and 10 μM, 24 hours.
Assay type: cell-based
Description: HaCaT cells harboring B antigen was treated respectively with FGG and FGGN mixture and FG (Fucose:Galactose=1:1, H-antigen composition) mixture which compose A, B, and H antigen, and also glucose, galactose, fucose, N-acetylgalactosamine and N-acetylglucosamine which are monosaccharides that constitute A, B, and H antigen at different concentrations of 0.1, 1, and 10 μM for 24 hours. Western blotting was performed to investigate the expression of B antigen. As a result, the expression of B antigen was increased in every case above (FIG. 9).
In the case of `CC(=O)N[C@H]1C(O)O[C@H](CO)[C@H](O)[C@@H]1O` (stereo partly shown) [N-acetylgalactosamine], the “expression of B antigen” value is reported as “increased”. With `CC(=O)N[C@H]1C(O)O[C@H](CO)[C@@H](O)[C@@H]1O` (stereo partly shown) [N-acetylglucosamine] the “expression of B antigen” value was “increased”. `C[C@H](O)[C@@H](O)[C@@H](O)[C@H](O)C=O` [fucose] was tested, and the “expression of B antigen” value was “increased”. In the case of `O=C[C@H](O)[C@@H](O)[C@@H](O)[C@H](O)CO` [galactose], the “expression of B antigen” value is reported as “increased”.
